Measurements reported in ChEMBL document CHEMBL2440045, “The synthesis and anticancer activity of analogs of the indole phytoalexins brassinin, 1-methoxyspirobrassinol methyl ether and cyclobrassinin” (Bioorg Med Chem, 2013).

tested on: A549; experiment: Antiproliferative activity against human A549 cells assessed as cell viability after 72 hrs by MTT assay; format: functional, cell-based; settings: A549, 72 h

IC50 | SMILES
70.5 µM | CO[C@H]1N(C(=O)OC(C)(C)C)c2ccccc2[C@@]12CN=C(SC)S2 (racemic)
7.6 µM | CC(C)(C)OC(=O)n1cc(CNC(=S)Nc2ccc(Cl)cc2)c2ccccc21
42.2 µM | c1ccc2c3c([nH]c2c1)SC(N1CCCCC1)=NC3
55.4 µM | CO[C@@H]1N(C(=O)OC(C)(C)C)c2ccccc2[C@@]12CN=C(N1CCCCC1)S2 (racemic)
100 µM | CSC1=NC[C@]2(S1)c1ccccc1N(C(=O)OC(C)(C)C)[C@@H]2O (racemic)
38 µM | CO[C@@H]1N(C(=O)OC(C)(C)C)c2ccccc2[C@@]12CN=C(NC1CCCCC1)S2 (racemic)
100 µM | CON1c2ccccc2C2(CN=C(SC)S2)C1O (racemic)
74 µM | CC(C)(C)OC(=O)N1c2ccccc2[C@@]2(CN=C(Nc3ccccc3)S2)[C@H]1O (racemic)
43.4 µM | CNC1=NCc2c([nH]c3ccccc23)S1
55.3 µM | c1ccc2c3c([nH]c2c1)SC(NC1CCCCC1)=NC3
76 µM | CO[C@@H]1N(C(=O)OC(C)(C)C)c2ccccc2[C@@]12CN=C(Nc1ccc(Br)cc1)S2 (racemic)
26 µM | CO[C@H]1N(C(=O)OC(C)(C)C)c2ccccc2[C@@]12CN=C(Nc1ccc(Cl)cc1)S2 (racemic)
3.6 µM | CC(C)(C)OC(=O)n1cc(CNC(=S)Nc2cc(C(F)(F)F)cc(C(F)(F)F)c2)c2ccccc21
31.4 µM | CO[C@H]1N(C(=O)OC(C)(C)C)c2ccccc2[C@@]12CN=C(Nc1ccc(C)cc1)S2 (racemic)
> 100 µM | CO[C@@H]1N(C(=O)OC(C)(C)C)c2ccccc2[C@@]12CN=C(N1CCOCC1)S2 (racemic)
24.6 µM | CO[C@H]1N(C(=O)OC(C)(C)C)c2ccccc2[C@@]12CN=C(Nc1ccc(C(F)(F)F)cc1)S2 (racemic)
> 100 µM | CC(C)(C)OC(=O)n1cc(CNC(=S)N2CCOCC2)c2ccccc21

tested on: HeLa; experiment: Antiproliferative activity against human HeLa cells assessed as cell viability after 72 hrs by MTT assay; format: functional, cell-based; settings: not given

IC50 | SMILES
74.3 µM | CO[C@H]1N(C(=O)OC(C)(C)C)c2ccccc2[C@@]12CN=C(SC)S2 (racemic)
4 µM | CC(C)(C)OC(=O)n1cc(CNC(=S)Nc2ccc(Cl)cc2)c2ccccc21
40.7 µM | c1ccc2c3c([nH]c2c1)SC(N1CCCCC1)=NC3
62.3 µM | CO[C@@H]1N(C(=O)OC(C)(C)C)c2ccccc2[C@@]12CN=C(N1CCCCC1)S2 (racemic)
78 µM | CSC1=NC[C@]2(S1)c1ccccc1N(C(=O)OC(C)(C)C)[C@@H]2O (racemic)
36.7 µM | CO[C@@H]1N(C(=O)OC(C)(C)C)c2ccccc2[C@@]12CN=C(NC1CCCCC1)S2 (racemic)
100 µM | CON1c2ccccc2C2(CN=C(SC)S2)C1O (racemic)
72.4 µM | CC(C)(C)OC(=O)N1c2ccccc2[C@@]2(CN=C(Nc3ccccc3)S2)[C@H]1O (racemic)
67.2 µM | CNC1=NCc2c([nH]c3ccccc23)S1
65 µM | c1ccc2c3c([nH]c2c1)SC(NC1CCCCC1)=NC3
65.5 µM | CO[C@@H]1N(C(=O)OC(C)(C)C)c2ccccc2[C@@]12CN=C(Nc1ccc(Br)cc1)S2 (racemic)
20.8 µM | CO[C@H]1N(C(=O)OC(C)(C)C)c2ccccc2[C@@]12CN=C(Nc1ccc(Cl)cc1)S2 (racemic)
6.6 µM | CC(C)(C)OC(=O)n1cc(CNC(=S)Nc2cc(C(F)(F)F)cc(C(F)(F)F)c2)c2ccccc21
20.2 µM | CO[C@H]1N(C(=O)OC(C)(C)C)c2ccccc2[C@@]12CN=C(Nc1ccc(C)cc1)S2 (racemic)
76 µM | CO[C@@H]1N(C(=O)OC(C)(C)C)c2ccccc2[C@@]12CN=C(N1CCOCC1)S2 (racemic)
32.7 µM | CO[C@H]1N(C(=O)OC(C)(C)C)c2ccccc2[C@@]12CN=C(Nc1ccc(C(F)(F)F)cc1)S2 (racemic)
80 µM | CC(C)(C)OC(=O)n1cc(CNC(=S)N2CCOCC2)c2ccccc21

tested on: CCRF-CEM; experiment: Antiproliferative activity against human CCRF-CEM cells assessed as cell viability after 72 hrs by MTT assay; format: functional, cell-based; settings: not given

IC50 | SMILES
37.9 µM | CO[C@H]1N(C(=O)OC(C)(C)C)c2ccccc2[C@@]12CN=C(SC)S2 (racemic)
3.8 µM | CC(C)(C)OC(=O)n1cc(CNC(=S)Nc2ccc(Cl)cc2)c2ccccc21
6.6 µM | c1ccc2c3c([nH]c2c1)SC(N1CCCCC1)=NC3
30.7 µM | CO[C@@H]1N(C(=O)OC(C)(C)C)c2ccccc2[C@@]12CN=C(N1CCCCC1)S2 (racemic)
30.6 µM | CSC1=NC[C@]2(S1)c1ccccc1N(C(=O)OC(C)(C)C)[C@@H]2O (racemic)
29.1 µM | CO[C@@H]1N(C(=O)OC(C)(C)C)c2ccccc2[C@@]12CN=C(NC1CCCCC1)S2 (racemic)
100 µM | CON1c2ccccc2C2(CN=C(SC)S2)C1O (racemic)
33 µM | CC(C)(C)OC(=O)N1c2ccccc2[C@@]2(CN=C(Nc3ccccc3)S2)[C@H]1O (racemic)
4.7 µM | CNC1=NCc2c([nH]c3ccccc23)S1
3.9 µM | c1ccc2c3c([nH]c2c1)SC(NC1CCCCC1)=NC3
50 µM | CO[C@@H]1N(C(=O)OC(C)(C)C)c2ccccc2[C@@]12CN=C(Nc1ccc(Br)cc1)S2 (racemic)
26.5 µM | CO[C@H]1N(C(=O)OC(C)(C)C)c2ccccc2[C@@]12CN=C(Nc1ccc(Cl)cc1)S2 (racemic)
2.9 µM | CC(C)(C)OC(=O)n1cc(CNC(=S)Nc2cc(C(F)(F)F)cc(C(F)(F)F)c2)c2ccccc21
14.4 µM | CO[C@H]1N(C(=O)OC(C)(C)C)c2ccccc2[C@@]12CN=C(Nc1ccc(C)cc1)S2 (racemic)
35.9 µM | CO[C@@H]1N(C(=O)OC(C)(C)C)c2ccccc2[C@@]12CN=C(N1CCOCC1)S2 (racemic)
7.2 µM | CO[C@H]1N(C(=O)OC(C)(C)C)c2ccccc2[C@@]12CN=C(Nc1ccc(C(F)(F)F)cc1)S2 (racemic)
> 100 µM | CC(C)(C)OC(=O)n1cc(CNC(=S)N2CCOCC2)c2ccccc21

tested on: MDA-MB-231; experiment: Antiproliferative activity against human MDA-MB-231 cells assessed as cell viability after 72 hrs by MTT assay; format: functional, cell-based; settings: MDA-MB-231, 72 h

IC50 | SMILES
87 µM | CO[C@H]1N(C(=O)OC(C)(C)C)c2ccccc2[C@@]12CN=C(SC)S2 (racemic)
17.1 µM | CC(C)(C)OC(=O)n1cc(CNC(=S)Nc2ccc(Cl)cc2)c2ccccc21
35.5 µM | c1ccc2c3c([nH]c2c1)SC(N1CCCCC1)=NC3
69 µM | CO[C@@H]1N(C(=O)OC(C)(C)C)c2ccccc2[C@@]12CN=C(N1CCCCC1)S2 (racemic)
82.8 µM | CSC1=NC[C@]2(S1)c1ccccc1N(C(=O)OC(C)(C)C)[C@@H]2O (racemic)
41.4 µM | CO[C@@H]1N(C(=O)OC(C)(C)C)c2ccccc2[C@@]12CN=C(NC1CCCCC1)S2 (racemic)
100 µM | CON1c2ccccc2C2(CN=C(SC)S2)C1O (racemic)
64 µM | CC(C)(C)OC(=O)N1c2ccccc2[C@@]2(CN=C(Nc3ccccc3)S2)[C@H]1O (racemic)
34.3 µM | CNC1=NCc2c([nH]c3ccccc23)S1
30.9 µM | c1ccc2c3c([nH]c2c1)SC(NC1CCCCC1)=NC3
> 100 µM | CO[C@@H]1N(C(=O)OC(C)(C)C)c2ccccc2[C@@]12CN=C(Nc1ccc(Br)cc1)S2 (racemic)
42 µM | CO[C@H]1N(C(=O)OC(C)(C)C)c2ccccc2[C@@]12CN=C(Nc1ccc(Cl)cc1)S2 (racemic)
4.1 µM | CC(C)(C)OC(=O)n1cc(CNC(=S)Nc2cc(C(F)(F)F)cc(C(F)(F)F)c2)c2ccccc21
35.6 µM | CO[C@H]1N(C(=O)OC(C)(C)C)c2ccccc2[C@@]12CN=C(Nc1ccc(C)cc1)S2 (racemic)
> 100 µM | CO[C@@H]1N(C(=O)OC(C)(C)C)c2ccccc2[C@@]12CN=C(N1CCOCC1)S2 (racemic)
28.6 µM | CO[C@H]1N(C(=O)OC(C)(C)C)c2ccccc2[C@@]12CN=C(Nc1ccc(C(F)(F)F)cc1)S2 (racemic)
> 100 µM | CC(C)(C)OC(=O)n1cc(CNC(=S)N2CCOCC2)c2ccccc21

tested on: Jurkat; experiment: Antiproliferative activity against human Jurkat cells assessed as cell viability after 72 hrs by MTT assay; format: functional, cell-based; settings: not given

IC50 | SMILES
37.3 µM | CO[C@H]1N(C(=O)OC(C)(C)C)c2ccccc2[C@@]12CN=C(SC)S2 (racemic)
4.2 µM | CC(C)(C)OC(=O)n1cc(CNC(=S)Nc2ccc(Cl)cc2)c2ccccc21
7.3 µM | c1ccc2c3c([nH]c2c1)SC(N1CCCCC1)=NC3
33.1 µM | CO[C@@H]1N(C(=O)OC(C)(C)C)c2ccccc2[C@@]12CN=C(N1CCCCC1)S2 (racemic)
34 µM | CSC1=NC[C@]2(S1)c1ccccc1N(C(=O)OC(C)(C)C)[C@@H]2O (racemic)
27 µM | CO[C@@H]1N(C(=O)OC(C)(C)C)c2ccccc2[C@@]12CN=C(NC1CCCCC1)S2 (racemic)
100 µM | CON1c2ccccc2C2(CN=C(SC)S2)C1O (racemic)
47.7 µM | CC(C)(C)OC(=O)N1c2ccccc2[C@@]2(CN=C(Nc3ccccc3)S2)[C@H]1O (racemic)
5.2 µM | CNC1=NCc2c([nH]c3ccccc23)S1
5.2 µM | c1ccc2c3c([nH]c2c1)SC(NC1CCCCC1)=NC3
30 µM | CO[C@@H]1N(C(=O)OC(C)(C)C)c2ccccc2[C@@]12CN=C(Nc1ccc(Br)cc1)S2 (racemic)
23.5 µM | CO[C@H]1N(C(=O)OC(C)(C)C)c2ccccc2[C@@]12CN=C(Nc1ccc(Cl)cc1)S2 (racemic)
3.6 µM | CC(C)(C)OC(=O)n1cc(CNC(=S)Nc2cc(C(F)(F)F)cc(C(F)(F)F)c2)c2ccccc21
25.7 µM | CO[C@H]1N(C(=O)OC(C)(C)C)c2ccccc2[C@@]12CN=C(Nc1ccc(C)cc1)S2 (racemic)
34.5 µM | CO[C@@H]1N(C(=O)OC(C)(C)C)c2ccccc2[C@@]12CN=C(N1CCOCC1)S2 (racemic)
9.3 µM | CO[C@H]1N(C(=O)OC(C)(C)C)c2ccccc2[C@@]12CN=C(Nc1ccc(C(F)(F)F)cc1)S2 (racemic)
95.8 µM | CC(C)(C)OC(=O)n1cc(CNC(=S)N2CCOCC2)c2ccccc21

tested on: MCF7; experiment: Antiproliferative activity against human MCF7 cells assessed as cell viability after 72 hrs by MTT assay; format: functional, cell-based; settings: MCF7, 72 h

IC50 | SMILES
70.2 µM | CO[C@H]1N(C(=O)OC(C)(C)C)c2ccccc2[C@@]12CN=C(SC)S2 (racemic)
8.6 µM | CC(C)(C)OC(=O)n1cc(CNC(=S)Nc2ccc(Cl)cc2)c2ccccc21
37.1 µM | c1ccc2c3c([nH]c2c1)SC(N1CCCCC1)=NC3
64.4 µM | CO[C@@H]1N(C(=O)OC(C)(C)C)c2ccccc2[C@@]12CN=C(N1CCCCC1)S2 (racemic)
100 µM | CSC1=NC[C@]2(S1)c1ccccc1N(C(=O)OC(C)(C)C)[C@@H]2O (racemic)
37.2 µM | CO[C@@H]1N(C(=O)OC(C)(C)C)c2ccccc2[C@@]12CN=C(NC1CCCCC1)S2 (racemic)
100 µM | CON1c2ccccc2C2(CN=C(SC)S2)C1O (racemic)
27.4 µM | CC(C)(C)OC(=O)N1c2ccccc2[C@@]2(CN=C(Nc3ccccc3)S2)[C@H]1O (racemic)
43.2 µM | CNC1=NCc2c([nH]c3ccccc23)S1
64.3 µM | c1ccc2c3c([nH]c2c1)SC(NC1CCCCC1)=NC3
78 µM | CO[C@@H]1N(C(=O)OC(C)(C)C)c2ccccc2[C@@]12CN=C(Nc1ccc(Br)cc1)S2 (racemic)
36.5 µM | CO[C@H]1N(C(=O)OC(C)(C)C)c2ccccc2[C@@]12CN=C(Nc1ccc(Cl)cc1)S2 (racemic)
3.5 µM | CC(C)(C)OC(=O)n1cc(CNC(=S)Nc2cc(C(F)(F)F)cc(C(F)(F)F)c2)c2ccccc21
32.9 µM | CO[C@H]1N(C(=O)OC(C)(C)C)c2ccccc2[C@@]12CN=C(Nc1ccc(C)cc1)S2 (racemic)
69.5 µM | CO[C@@H]1N(C(=O)OC(C)(C)C)c2ccccc2[C@@]12CN=C(N1CCOCC1)S2 (racemic)
26.5 µM | CO[C@H]1N(C(=O)OC(C)(C)C)c2ccccc2[C@@]12CN=C(Nc1ccc(C(F)(F)F)cc1)S2 (racemic)
> 100 µM | CC(C)(C)OC(=O)n1cc(CNC(=S)N2CCOCC2)c2ccccc21
